Measured values as given in patent publication US20170119020A1, “METHOD OF FEEDING AN ANIMAL” (CARGILL, INCORPORATED, priority 2014, published 2017).

Experiments:
[1] = tested on: egg yolk of Ross 308 breeders; experiment: Egg yolk ORAC and vitamin E analysis (Example 4); type: in vivo, chicken
Text: Eggs were shipped to University Gent, Belgium, for ORAC and vitamin E analysis on the yolk. The method used for the determination of polyphenols was the Folin-Ciocalteu Methodology which is described in the European Pharmacopoeia, using a spectrophotometry UV-visible. For the ORAC analysis the method was used as described by Ou et al. “Development and validation of an improved oxygen radical absorbance capacity assay using fluorescein as the fluorescent probe,” Journal of Agricultural and Food Chemistry 49: 4619-4626, (2001) and Huang et al. “High-throughput assay of oxygen radical absorbance capacity (ORAC) using a multichannel liquid handling system coupled with a microplate fluorescence reader in 96-well format,” Journal of Agricultural and Food Chemistry 50: 4437-4444, (2002).

[2] = tested on: sows and piglets; experiment: Glutathione peroxidase (GPx) activity in blood of sows and piglets (Example 10); type: in vivo, pig; conditions: for Activity of glutathione peroxidase (GPx) in blood of piglets: piglets at 21 days
Text: The performance following criteria were monitored during the trial: (i) Sows response criteria (actual parity, farrowing rate, culled sows—number and reasons, wean-to-mating interval, farrowing rate in the next cycle); (ii) litter response criteria (number of piglets, total, alive, stillborn, mummies; weight of piglets and litters; survival). The following biochemical (blood) criteria were monitored during the trial for the sows (mating, farrowing and weaning), piglets 21st day: (i) glutathione peroxidase (GPx) activity; (ii) superoxide dismutase (SOD) activity; (iii) total antioxidant status (TAS); (iv) vitamin E content; (v) vitamin A content.
To determine the oxidative status, the blood samples were collected from sows and piglets into tubes with lithium anticoagulant—received whole blood for analysis. At the same time blood samples were taken for blood clot. They were centrifuged (1500 rpm, 15 Temp. 4° C.) and obtained serum was pipetted into separate tubes.
In studies of oxidative status of sows and piglets were used suitable to each of the indicators, the reagent kits from Sigma-Aldrich. Determination was made in accordance with the descriptions of the rules and procedures specified by the manufacturer.
The content of the TAS (total antioxidant status) were determined using the Antioxidant assay kit (Cat. No CS0790), the activity of SOD (superoxide dismutase) was determined using SOD determination kit 19160, the activity of GPx (glutathione Peroxide assai Cellular Activity Kit) Cat. No CGP1. The content of vitamins A and E by McMurray and Blanchflower 1979 (Journal of Chromatography 178, 525-531.). TAS
Whole blood samples (blood collection from animals to tubes with lithium anticoagulant) in duplicate (10 pl) was added to […] of buffer (pH 8), mixed (vortex—10′), then added 10 pl of a 70% aqueous solution of tert-butyl Hydroperoxide, mixed (by inversion) and the absorbance was measured immediately in a spectrophotometer at a wavelength of 340 nm. After 1 minute the measurement was repeated. Simultaneously blank samples (reagent) were performed and a calibration curve based on GPx serial dilutions in the range of 20 to 50 U/ml. The decrease in NADPH absorbance (during 1 minute) measured at 340 nm during the oxidation of NADPH to NADP+ is indicative of GPx activity.

[3] = tested on: Cobb500 fast-feathering male broilers; experiment: Grow out of offspring, performance till slaughter age (Example 3); type: in vivo, chicken

SMILES: Cc1c(C)c2c(c(C)c1O)CCC(C)(CCCC(C)CCCC(C)CCCC(C)C)O2 (racemic) [Vitamin E, DL-α-tocopherol]
- proportionality index for transfer of vitamin E from the diet to the egg ([1]; in vivo): around 50%
- ORAC of egg yolk ([1]; vitamin E equivalence 80 ppm): 33.8 µmol TE/g
- Vitamin E of egg yolk ([1]; vitamin E equivalence 80 ppm): 139.7 µg […]tocoferol/g
- ORAC of egg yolk ([1]; vitamin E equivalence 160 ppm): 33.5 µmol TE/g
- Vitamin E of egg yolk ([1]; vitamin E equivalence 160 ppm): 231.6 µg […]tocoferol/g
- Activity of glutathione peroxidase (GPx) in blood of sows ([2]; Breeding, Group 2: vitamin E 50/75 mg/kg diet): 37.73 U/ml
- Activity of glutathione peroxidase (GPx) in blood of sows ([2]; Breeding, Group 3: vitamin E 100/150 mg/kg diet): 38.85 U/ml
- Activity of glutathione peroxidase (GPx) in blood of sows ([2]; Farrowing, Group 2: vitamin E 50/75 mg/kg diet): 32.77^C U/ml
- Activity of glutathione peroxidase (GPx) in blood of sows ([2]; Farrowing, Group 3: vitamin E 100/150 mg/kg diet): 37.64^B U/ml
- Activity of glutathione peroxidase (GPx) in blood of sows ([2]; Weaning, Group 2: vitamin E 50/75 mg/kg diet): 34.78^C U/ml
- Activity of glutathione peroxidase (GPx) in blood of sows ([2]; Weaning, Group 3: vitamin E 100/150 mg/kg diet): 36.48^B U/ml
- Activity of glutathione peroxidase (GPx) in blood of piglets ([2]; Group 2: vitamin E 50/75 mg/kg sow diet): 29.12^B U/ml
- Activity of glutathione peroxidase (GPx) in blood of piglets ([2]; Group 3: vitamin E 100/150 mg/kg sow diet): 29.91^B U/ml
- start weight of the chickens ([3]; after placement in cages, day 0): 40.9 g
- F:G corrected for BW ([3]; corrected to 2,181 gram body weight at 35 days of age): 1.627
- ADFI 0-3 d ([3]; offspring): 10.1 g
- ADFI 0-14 d ([3]; offspring): 37.1 g
- ADFI 0-28 d ([3]; offspring): 82.1 g
- ADFI 0-35 d ([3]; offspring): 101.7 g
- ADFI 3-14 d ([3]; offspring): 44.5 g
- ADFI 14-35 ([3]; offspring): 144.8 g
- ADFI 14-28 d ([3]; offspring): 127.0 g
- ADFI 28-35 d ([3]; offspring): 180.3 g
- ADG 0-3 d ([3]; offspring): 9.5 g
- ADG 0-14 d ([3]; offspring): 29.3 g
- ADG 0-28 d ([3]; offspring): 54.4 g
- ADG 0-35 d ([3]; offspring): 62.2 g
- ADG 3-14 d ([3]; offspring): 34.7 g
- ADG 14-35 ([3]; offspring): 84.2 g
- ADG 14-28 d ([3]; offspring): 79.6 g
- ADG 28-35 d ([3]; offspring): 93.6 g
- BW 0 d ([3]; offspring): 40.9 g
- BW 3 d ([3]; offspring): 69.4 g
- BW 14 d ([3]; offspring): 451 g
- BW 35 d ([3]; offspring): 2219 g
- F:G 0-14 d ([3]; offspring): 1.268
- F:G 0-28 d ([3]; offspring): 1.509
- F:G 0-35 d ([3]; offspring): 1.635
- F:G 3-14 d ([3]; offspring): 1.283
- F:G 14-28 d ([3]; offspring): 1.598
- F:G 14-35 d ([3]; offspring): 1.720
- F:G 28-35 d ([3]; offspring): 1.929
- EPI excl ([3]; offspring, 35 d): 388
- EPI, excl mortality ([3]; offspring, 35 d): 369
- Mortality ([3]; offspring, breeder diet 80 ppm vitamin E or 40 ppm vitamin E+40 ppm PROVIOX 50): 4.6%
- F:G 0-3 d ([3]; offspring, kg feed intake:kg gain): 1.088
